Experiments:
[1] = test system: Aβ deposits; details: Lim et al., J. Neurosci. 2000; cited from earlier work
[2] = molecular target: L-type calcium channels (Rattus norvegicus, UniProt P22002); assay: FPL64176 induced vasoconstriction in rat aortae; details: 100 nM, 2 min prior to 1 μM FPL64176
[3] = test system: 7W WT APP751 Chinese hamster ovary cells; assay: Aβ1-40 and Aβ1-42 production by ELISA; assay type: cell-based; details: 24 hours treatment
Method: Production of Aβ1-40 and Aβ1-42 in the culture medium was measured by using a commercially available human Aβ1-40 ELISA (Biosource, CA) and commercially available human Aβ1-42 ELISA (Biosource, CA), respectively.

[4] = test system: CD45+ microglia; assay: Chronic administration of nilvadipine on microglial activation, CD45 immunostaining; assay type: in vivo, TgAPPsw mice
Method: Briefly, immunohistochemistry for CD45, a specific marker of microglia, was conducted on the cryostat brain sections. CD45-positive microglial cells were immunolocalized by incubation with a mouse monoclonal antibody against CD45 (Chemicon International) overnight at 4° C., followed by application of a biotinylated rabbit anti-mouse secondary antibody for 30 minutes. Detection of CD45 was completed with diaminobenzidine chromogen substrate, which produces a brown cell surface stain on CD45-positive microglial cells.

[5] = test system: human glioblastoma cells transfected with APPsw; assay: APP processing, Aβ1-40 production by ELISA; assay type: cell-based
[6] = test system: human neuronal progenitor cells (HNPC); assay: Aβ neurotoxicity, LDH release; assay type: cell-based; details: 100 nM nilvadipine with 30 μM AgAβ, three days
Method: Cyclic AMP (1 mM) (Sigma) was added to the culture medium and the HNPC cells were incubated at 37° C. for 48 hours or more under serum free conditions. This medium allowed differentiation of the progenitors into cells of neuronal lineage, as was confirmed by the staining of most of the cells with antibodies against the microtubule-associated protein, MAP-2. Neurotoxicity was assessed by measuring the amount of lactic dehydrogenase (LDH; an intracellular enzyme found in all cells) released from the cells.

[7] = test system: Aβ deposition (amyloid burden); assay: Chronic administration of nilvadipine on Aβ deposition (amyloid burden), 4G8 immunostaining; assay type: in vivo, TgAPPsw mice
Method: The 4G8 immunostaining technique was chosen for determining the Aβ burden because of its robust signal and optimal results for quantitative analysis of Aβ deposition. Briefly, paraffin sections were subjected to immunohistochemistry as described previously (Nakagawa, Y et al., Exp. Neurol., 163:244-252, 2000). Sections were deparaffinized in xylene, hydrated in a series of ethanol and deionized water, and subjected to an antigen retrieval step by immersing sections in 88% formic acid for 60 min before immunohistochemistry for Aβ. Sections were washed in water, and endogenous peroxidases were quenched using a freshly prepared mixture of methanol (150 ml) plus hydrogen peroxide (33%, 30 ml). The avidin-biotin complex method was used according to the instructions of the vendor (Vector Laboratories, Burlingame, Calif.). Amyloid burden was assessed by determining the percentage of the brain region that stained positive for Aβ. Negative controls included the application of the same immunohistochemistry protocol to sections, except preimmune serum was applied instead of primary antibody.

[8] = test system: N9 murine microglial cells; assay: LPS-induced microglial activation, TNF-α production by ELISA; assay type: cell-based
Method: N9 murine microglial cells are well characterized scavenger murine microglial clones derived from embryonic mouse brain. The extent of microglial activation was determined by TNF-α production (pg/ml) measured by ELISA. […] Microglial cells in the presence of 1 μg/ml LPS produced about 820 pg/ml TNF-α, an […] from the control cells and nilvadipine-administered cells.

Sequence of L-type calcium channels (P22002 whole entry): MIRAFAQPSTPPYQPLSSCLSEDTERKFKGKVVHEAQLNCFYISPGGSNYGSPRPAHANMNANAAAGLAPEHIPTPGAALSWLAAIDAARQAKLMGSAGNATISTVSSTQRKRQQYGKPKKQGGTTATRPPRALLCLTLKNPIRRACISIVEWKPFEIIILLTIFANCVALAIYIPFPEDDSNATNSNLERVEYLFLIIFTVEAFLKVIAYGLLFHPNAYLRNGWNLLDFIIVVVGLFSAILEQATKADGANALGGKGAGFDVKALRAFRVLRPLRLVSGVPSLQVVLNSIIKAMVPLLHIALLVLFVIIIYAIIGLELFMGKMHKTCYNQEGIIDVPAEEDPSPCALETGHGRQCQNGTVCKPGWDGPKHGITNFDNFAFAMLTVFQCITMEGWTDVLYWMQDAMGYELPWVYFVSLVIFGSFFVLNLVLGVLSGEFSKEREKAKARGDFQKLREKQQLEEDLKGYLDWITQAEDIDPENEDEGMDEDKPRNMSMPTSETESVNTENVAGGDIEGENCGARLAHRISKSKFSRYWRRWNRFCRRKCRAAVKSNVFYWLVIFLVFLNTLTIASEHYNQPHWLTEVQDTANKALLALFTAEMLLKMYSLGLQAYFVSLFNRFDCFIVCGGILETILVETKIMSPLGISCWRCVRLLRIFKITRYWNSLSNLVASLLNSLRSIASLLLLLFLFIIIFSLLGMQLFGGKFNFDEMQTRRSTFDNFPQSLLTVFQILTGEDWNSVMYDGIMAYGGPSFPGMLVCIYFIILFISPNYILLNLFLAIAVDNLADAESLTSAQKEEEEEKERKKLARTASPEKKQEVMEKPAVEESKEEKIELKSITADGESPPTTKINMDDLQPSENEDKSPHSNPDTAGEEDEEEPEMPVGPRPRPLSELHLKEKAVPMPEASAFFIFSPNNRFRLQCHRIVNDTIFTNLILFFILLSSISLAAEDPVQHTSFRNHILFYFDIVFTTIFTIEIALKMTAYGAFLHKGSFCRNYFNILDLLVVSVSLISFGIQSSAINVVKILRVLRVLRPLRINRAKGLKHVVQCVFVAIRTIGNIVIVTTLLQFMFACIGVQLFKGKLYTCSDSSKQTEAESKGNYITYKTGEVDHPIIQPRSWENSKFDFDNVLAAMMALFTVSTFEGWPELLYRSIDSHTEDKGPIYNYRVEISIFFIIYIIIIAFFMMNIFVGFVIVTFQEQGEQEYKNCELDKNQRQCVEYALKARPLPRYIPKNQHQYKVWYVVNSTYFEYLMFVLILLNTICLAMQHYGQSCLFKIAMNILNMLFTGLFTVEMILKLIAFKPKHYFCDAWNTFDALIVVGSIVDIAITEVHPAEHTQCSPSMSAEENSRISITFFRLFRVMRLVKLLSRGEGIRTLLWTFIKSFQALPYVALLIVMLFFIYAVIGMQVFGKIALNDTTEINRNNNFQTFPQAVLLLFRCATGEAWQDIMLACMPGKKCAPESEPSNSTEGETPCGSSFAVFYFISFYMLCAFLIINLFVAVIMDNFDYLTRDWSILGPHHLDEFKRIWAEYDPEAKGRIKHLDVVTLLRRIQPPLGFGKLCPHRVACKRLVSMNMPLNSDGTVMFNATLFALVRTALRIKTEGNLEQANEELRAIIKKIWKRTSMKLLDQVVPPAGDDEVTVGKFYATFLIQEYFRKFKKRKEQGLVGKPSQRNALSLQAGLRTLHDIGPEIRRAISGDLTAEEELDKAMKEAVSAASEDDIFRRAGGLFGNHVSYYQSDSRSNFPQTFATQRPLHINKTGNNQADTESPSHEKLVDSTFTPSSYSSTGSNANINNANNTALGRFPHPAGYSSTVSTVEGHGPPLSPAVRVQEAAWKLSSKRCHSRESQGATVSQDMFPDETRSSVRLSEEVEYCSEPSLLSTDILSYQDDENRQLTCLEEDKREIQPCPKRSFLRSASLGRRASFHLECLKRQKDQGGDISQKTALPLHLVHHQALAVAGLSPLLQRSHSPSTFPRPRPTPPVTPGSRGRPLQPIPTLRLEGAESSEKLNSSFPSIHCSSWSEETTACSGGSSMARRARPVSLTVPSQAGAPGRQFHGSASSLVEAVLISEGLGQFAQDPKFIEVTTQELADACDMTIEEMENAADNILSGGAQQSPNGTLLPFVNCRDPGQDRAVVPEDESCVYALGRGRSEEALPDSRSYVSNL
Sequence of L-type calcium channels (P54290 25-944 partner limits assumed): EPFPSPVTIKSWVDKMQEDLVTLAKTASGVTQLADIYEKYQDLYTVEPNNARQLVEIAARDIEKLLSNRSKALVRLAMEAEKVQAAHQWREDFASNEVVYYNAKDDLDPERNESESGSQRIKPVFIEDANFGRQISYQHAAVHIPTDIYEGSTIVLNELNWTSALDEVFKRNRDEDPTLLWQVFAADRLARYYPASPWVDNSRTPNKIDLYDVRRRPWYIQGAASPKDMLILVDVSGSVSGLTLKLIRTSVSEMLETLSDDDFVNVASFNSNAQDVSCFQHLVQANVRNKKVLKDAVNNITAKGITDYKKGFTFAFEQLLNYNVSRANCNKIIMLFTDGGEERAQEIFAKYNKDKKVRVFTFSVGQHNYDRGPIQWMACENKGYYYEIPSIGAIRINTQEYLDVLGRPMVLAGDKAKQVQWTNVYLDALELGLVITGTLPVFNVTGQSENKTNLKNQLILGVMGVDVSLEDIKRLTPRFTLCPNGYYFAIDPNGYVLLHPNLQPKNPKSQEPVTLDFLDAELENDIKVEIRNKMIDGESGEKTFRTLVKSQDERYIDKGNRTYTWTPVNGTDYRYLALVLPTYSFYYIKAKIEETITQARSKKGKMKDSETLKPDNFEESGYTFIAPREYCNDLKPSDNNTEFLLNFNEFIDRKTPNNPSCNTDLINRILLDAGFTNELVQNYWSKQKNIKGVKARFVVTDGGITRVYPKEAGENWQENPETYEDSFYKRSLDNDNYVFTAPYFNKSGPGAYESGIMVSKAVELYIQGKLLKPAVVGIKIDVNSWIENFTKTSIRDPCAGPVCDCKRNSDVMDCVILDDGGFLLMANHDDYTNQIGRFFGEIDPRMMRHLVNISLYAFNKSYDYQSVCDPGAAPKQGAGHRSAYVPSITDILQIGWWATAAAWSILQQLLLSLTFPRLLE
Sequence of L-type calcium channels (P54290 945-1091 partner limits assumed): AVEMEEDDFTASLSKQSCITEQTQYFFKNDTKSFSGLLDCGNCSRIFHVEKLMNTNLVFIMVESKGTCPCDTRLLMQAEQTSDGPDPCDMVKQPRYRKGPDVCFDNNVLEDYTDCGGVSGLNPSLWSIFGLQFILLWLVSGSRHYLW

## CC(C)Cc1ccc(C(C)C(=O)O)cc1 (stereo not drawn) [ibuprofen]
[1]
  effect on Aβ deposits, astrocytosis and dystrophic neuritis: reduction in Aβ deposits, astrocytosis, and dystrophic neuritis

## COC(=O)C1=C(C#N)NC(C)=C(C(=O)OC(C)C)[C@H]1c1cccc([N+](=O)[O-])c1 [(+)-nilvadipine]
[2]
  effect on FPL64176 induced vasoconstriction: completely antagonizes
[3]; dose response
  effect on Aβ1-40 production: dose dependently inhibit
[3]; low dose
  effect on Aβ1-42 production: slightly stimulate

## COC(=O)C1=C(C#N)NC(C)=C(C(=O)OC(C)C)C1c1cccc([N+](=O)[O-])c1 (racemic) [nilvadipine, isopropyl-3-methyl-2-cyano-1,4-dihydro-6-methyl-4-(m-nitrophenyl)-3,5-pyridine-dicarboxylate]
[4]; hippocampus
  reduction of microglial activation compared to controls: about 33%
[4]; motor cortex
  reduction of microglial activation compared to controls: about 27%
[4]; parietal cortex
  reduction of microglial activation compared to controls: about 43%
[5]; 50 nM, 24 hours
  reduction of Aβ1-40 production: about 9%
[5]; 50 nM, 48 hours
  reduction of Aβ1-40 production: about 18%
[5]; 250 nM, 24 hours
  reduction of Aβ1-40 production: about 15%
[5]; 250 nM, 48 hours
  reduction of Aβ1-40 production: about 5%
[6]
  decrease of LDH release: about 44%
[7]; CA1 region of the hippocampus
  reduction of Aβ burden compared to controls: about 52%
[7]; CA2-CA3 region of the hippocampus
  reduction of Aβ burden compared to controls: about 50%
[7]; motor cortex
  reduction of Aβ burden compared to controls: about 58%
[7]; parietal cortex
  reduction of Aβ burden compared to controls: about 65%
[7]; pyriform cortex
  reduction of Aβ burden compared to controls: about 58%
[7]; visual cortex
  reduction of Aβ burden compared to controls: about 62%
[8]; 50 nM nilvadipine, no LPS
  TNF-α production: about 40 pg/ml
[8]; 1 μg/ml LPS plus 50 nM nilvadipine, 24 hours
  TNF-α production: about 670 pg/ml
[8]; 1 μg/ml LPS plus 500 nM nilvadipine, 24 hours
  TNF-α production: about 610 pg/ml
